`*/C=C(/*)CCCOc1ccc(OC(=O)c2ccc(OC)cc2)cc1` (repeat unit) showed a glass transition temperature of 20.00 °C. In turn, `*C(=O)NCCCCCCNC(=O)c1ccc(*)nc1` (repeat unit) showed a glass transition temperature of 80.00 °C. The same measure for `*C(=O)NCCN(CCNC(=O)c1cccc(N2C(=O)c3ccc(*)cc3C2=O)c1)c1ccc(/C=C/c2ccc([N+](=O)[O-])cc2)cc1` (repeat unit): 178.00 °C; for `*C(=O)Nc1cc(NC(=O)c2ccc3[nH]c(-c4cccc(-c5nc6cc(*)ccc6[nH]5)c4)nc3c2)cc(-c2nc3ccccc3[nH]2)c1` (repeat unit): 315.00 °C. The same measure for `*C(=O)Nc1cc(NC(=O)c2ccc3c(c2)C(=O)N(c2cc(-c4nnc(-c5ccccn5)o4)cc(N4C(=O)c5ccc(*)cc5C4=O)c2)C3=O)cc(-c2nnc(-c3ccccn3)o2)c1` (repeat unit): 164.00 °C; for `*C(=O)Nc1ccc(-c2cc(-c3ccccc3)cc(-c3ccc(NC(=O)c4ccc5c(c4)C(=O)N(c4cccc(P(=O)(c6ccccc6)c6cccc(N7C(=O)c8ccc(*)cc8C7=O)c6)c4)C5=O)cc3)n2)cc1` (repeat unit): 258.00 °C. The same measure for `*C(=O)Nc1ccc(-c2ccc(NC(=O)c3ccc4c(c3)C(=O)N(c3ccc(S(=O)(=O)c5ccc(N6C(=O)c7ccc(*)cc7C6=O)cc5)cc3)C4=O)cc2)cc1` (repeat unit): 370.00 °C. In turn, `*C(=O)c1cc(C(=O)c2ccc3c(c2)C(=O)N(c2ccc(C(c4ccc(N5C(=O)c6ccc(*)cc6C5=O)cc4)(C(F)(F)F)C(F)(F)F)cc2)C3=O)cc(-c2ccccc2)c1` (repeat unit) registered a glass transition temperature of 260.50 °C. The same measure for `*C(=O)c1cc2c(cc1Cl)C(=O)N(c1cc(Cl)c(N3C(=O)c4cc(*)c(Cl)cc4C3=O)cc1Cl)C2=O` (repeat unit): 367.00 °C; for `*CC(F)(F)C(F)(F)C(F)(F)COC(=O)NCCCCCCNC(=O)O*` (repeat unit): 16.00 °C; for `*CCCCCCCCCCOC(=O)NCCCCCCNC(=O)O*` (repeat unit): 55.00 °C. The same measure for `*CCCCCCCCCCOc1ccc(-c2cc(-c3ccccc3)c(-c3ccc(NC(=O)c4ccc(C(=O)Nc5ccc(-c6c(-c7ccccc7)cc(-c7ccc(O*)cc7)cc6-c6ccccc6)cc5)cc4)cc3)c(-c3ccccc3)c2)cc1` (repeat unit): 116.00 °C; for `*CCCCCCCCOC(=O)NCCCCCCNC(=O)O*` (repeat unit): 58.00 °C; for `*CCCCCCNC(=O)c1ccccc1-c1ccccc1C(=O)N*` (repeat unit): 122.50 °C. The same measure for `*CCCCCCOC(=O)NCCCCNC(=O)O*` (repeat unit): 16.00 °C; for `*CCCCCOC(=O)c1ccccc1C(=O)[O][Cd][O]C(=O)c1ccccc1C(=O)OCCCCCOC(=O)NCCCCCCNC(=O)O*` (repeat unit): -6.80 °C; for `*CCCCNC(=O)c1ccc(C(=O)N*)c(Sc2ccccc2)c1` (repeat unit): 136.00 °C. In the case of `*CCCNC(=O)O*` (repeat unit), the glass transition temperature is 26.00 °C. The same measure for `*CCCNC(=O)c1ccc(C(=O)N*)cc1` (repeat unit): 180.00 °C; for `*CCNC(=O)c1ccc(C(=O)N*)c(Sc2ccccc2)c1` (repeat unit): 172.00 °C; for `*CCNC(=O)c1ccccc1O*` (repeat unit): 84.00 °C. The same measure for `*CCOCCOC(=O)NCCCCCCNC(=O)O*` (repeat unit): 17.00 °C; for `*CCOCCOCCOC(=O)NCCCCCCNC(=O)O*` (repeat unit): -6.50 °C. The same measure for `*CCOCCOCCOCCOCCOCCOc1ccc(C(=O)Nc2cc(NC(=O)c3ccc(O*)cc3)cc(-c3nc4ccccc4[nH]3)c2)cc1` (repeat unit): 125.00 °C. Turning to `*CCOCCOCCOCCOCCOc1ccc(C(=O)Nc2cc(NC(=O)c3ccc(O*)cc3)cc(-c3nc4ccccc4[nH]3)c2)cc1` (repeat unit), the glass transition temperature came out at 145.00 °C.

`*CCOCCOCCOc1ccc(C(=O)Nc2cc(NC(=O)c3ccc(O*)cc3)cc(-c3nc4ccccc4[nH]3)c2)cc1` (repeat unit) returned a glass transition temperature of 165.00 °C. The same measure for `*CCOCCOc1ccc(C(=O)Nc2cc(NC(=O)c3ccc(O*)cc3)cc(-c3nc4ccccc4[nH]3)c2)cc1` (repeat unit): 230.00 °C; for `*CCOc1ccc(C(=O)Nc2cc(NC(=O)c3ccc(O*)cc3)cc(-c3nc4ccccc4[nH]3)c2)cc1` (repeat unit): 275.00 °C. The same measure for `*CNC(=O)OCC(OC(=O)NCc1ccc(*)o1)c1ccco1` (repeat unit): 30.00 °C; for `*COC(=O)NCc1ccc(CNC(=O)OCc2ccc(*)o2)o1` (repeat unit): 75.00 °C. Turning to `*NCCCCCCNc1nc(*)nc(-c2ccccc2)n1` (repeat unit), the glass transition temperature came out at 95.00 °C. Take `*NNC(=O)c1ccccc1C(=O)NCCCCCCNC(=O)c1ccccc1C(*)=O` (repeat unit): the glass transition temperature was found to be 224.50 °C.

With `*Nc1cc(NC(=O)NC2CCC(CC3CCC(NC(*)=O)CC3)CC2)cc(C(=O)Nc2cccc3c2C(=O)c2ccccc2C3=O)c1` (repeat unit), the glass transition temperature was 156.00 °C. The same measure for `*Nc1cc(NC(=O)c2ccc(-c3ccc(C(*)=O)cc3)cc2)cc(-c2nnc(-c3ccccn3)o2)c1` (repeat unit): 120.00 °C; for `*Nc1cc(NC(=O)c2ccc(C(*)=O)cc2)cc(-c2nnc(-c3ccccn3)o2)c1` (repeat unit): 230.00 °C; for `*Nc1cc(NC(=O)c2ccc(C(*)=O)cc2)cc(C(=O)Oc2ccccc2)c1` (repeat unit): 200.00 °C. The same measure for `*Nc1cc(NC(=O)c2ccccc2C(*)=O)cc(-c2nnc(-c3ccccn3)o2)c1` (repeat unit): 90.00 °C; for `*Nc1ccc(-c2ccc(NC(=O)c3ccc(C(*)=O)cc3)cc2)cc1` (repeat unit): 340.00 °C. The same measure for `*Nc1ccc(-c2ccc(NC(=O)c3cccc(C(*)=O)c3)c(O)c2)cc1O` (repeat unit): 386.00 °C; for `*Nc1ccc(-c2ccc(NC(=O)c3cccc(C(*)=O)c3)cc2)cc1` (repeat unit): 294.00 °C. `*Nc1ccc(Br)cc1-c1ccc(NC(=O)c2ccc(C(*)=O)cc2)cc1` (repeat unit) yielded a glass transition temperature of 285.00 °C. The same measure for `*Nc1ccc(Br)cc1-c1ccc(NC(=O)c2cccc(C(*)=O)c2)cc1` (repeat unit): 253.00 °C. In turn, `*Nc1ccc(N[Se]*)cc1` (repeat unit) yielded a glass transition temperature of 55.00 °C. The same measure for `*Nc1cccc2c(NC(=O)Nc3cc(NC(*)=O)cc(C(=O)Nc4ccc5c(c4)C(=O)c4ccccc4C5=O)c3)cccc12` (repeat unit): 178.00 °C; for `*Nc1cccc2c(NC(=O)Nc3cc(NC(*)=O)cc(C(=O)Nc4cccc5c4C(=O)c4ccccc4C5=O)c3)cccc12` (repeat unit): 185.00 °C. As for `*[O][Ca][O]C(=O)c1ccccc1C(=O)OCCCCCOC(=O)NCCCCCCNC(=O)OCCCCCOC(=O)c1ccccc1C(*)=O` (repeat unit), the glass transition temperature is -2.40 °C. For `*Oc1ccc(C(=O)NNC(=O)c2ccc(C(=O)NNC(=O)c3ccc(OC(=O)c4cccc(C(*)=O)c4)cc3)cc2)cc1` (repeat unit), the glass transition temperature stood at 175.00 °C.

In turn, `*Oc1ccc(C(=O)NNC(=O)c2cccc(C(=O)NNC(=O)c3ccc(OC(=O)c4cccc(C(*)=O)c4)cc3)c2)cc1` (repeat unit) had a glass transition temperature of 180.00 °C. The same measure for `*Oc1ccc(C(=O)Nc2cc(NC(=O)c3ccc(*)cc3)cc(-c3nc4ccccc4[nH]3)c2)cc1` (repeat unit): 335.00 °C. The same measure for `*Oc1ccc(C(c2ccc(Oc3ccc(C(=O)Nc4ccc(-c5ccc(NC(=O)c6ccc(*)cc6)cc5C(F)(F)F)c(C(F)(F)F)c4)cc3)cc2)(C(F)(F)F)C(F)(F)F)cc1` (repeat unit): 240.00 °C; for `*Oc1ccc(C2(c3ccc(Oc4ccc(C(=O)c5c(C(=O)c6ccc(*)cc6)c(-c6ccc(F)cc6)c(-c6ccc(F)cc6)c(-c6ccc(F)cc6)c5-c5ccc(F)cc5)cc4)cc3)c3ccccc3-c3ccccc32)cc1` (repeat unit): 293.00 °C; for `*Oc1ccc(CCNC(=O)c2cccc(C(*)=O)c2)cc1` (repeat unit): 152.00 °C. The same measure for `*Oc1ccc(CCNC(=O)c2cccc(C(=O)NCCc3ccc(OC(=O)c4cccc(C(*)=O)c4)cc3)c2)cc1` (repeat unit): 147.00 °C; for `*Oc1ccc(CNC(=O)c2cccc(C(=O)NCc3ccc(OC4COC5C(*)COC45)cc3)c2)cc1` (repeat unit): 83.00 °C; for `*Oc1ccc(Oc2ccc(C(=O)c3c(C(=O)c4ccc(*)cc4)c(-c4ccc(F)cc4)c(-c4ccc(F)cc4)c(-c4ccc(F)cc4)c3-c3ccc(F)cc3)cc2)cc1` (repeat unit): 266.00 °C. `*Oc1ccc(S(=O)(=O)c2ccc(Oc3ccc(C(=O)c4cc(Br)cc(C(=O)c5ccc(*)cc5)c4)cc3)cc2)cc1` (repeat unit) came in with a glass transition temperature of 192.00 °C. The same measure for `*c1ccc(-c2cc(-c3ccc(-c4ccccc4)cc3)cc(-c3ccc(N4C(=O)c5ccc(NC(=O)Nc6ccc(-c7cc(-c8ccc(-c9ccccc9)cc8)cc(-c8ccc(NC(=O)Nc9ccc%10c(c9)C(=O)N(*)C%10=O)cc8)n7)cc6)cc5C4=O)cc3)n2)cc1` (repeat unit): 272.00 °C. The same measure for `*c1ccc(C(=O)NCCCCCCNC(=O)c2ccc(-c3nc4ccccc4nc3*)cc2)cc1` (repeat unit): 201.00 °C; for `*c1cccc(S(=O)(=O)NCCCCNS(*)(=O)=O)c1` (repeat unit): 82.00 °C; for `*c1cccc(S(=O)(=O)NCCCNS(*)(=O)=O)c1` (repeat unit): 92.00 °C.
